Earlier results as cited in US20080064711A1, “Composition for treating oral cavity and Mucousal infections” (J.P.M.E.D. LTD., priority 2002, published 2008).

Columns and labels:
[1] = tested on: human keratinocyte and fibroblast cultures; conditions: Ponec et al. J Pharm Sci 1990
[2] = tested on: Gram negative bacteria that tend to colonize the oral cavity; conditions: patients undergoing radiation therapy; Spijkervet et al., 1990

SMILES | Cytotoxicity to human keratinocyte and fibroblast cultures [1] | Effectiveness against Gram negative bacteria colonizing the oral cavity [2]
CCO [Ethanol] | cytotoxic | –
[H]/N=C(\N/C(=N/[H])NCCCCCCNC(=N)NC(=N)Nc1ccc(Cl)cc1)Nc1ccc(Cl)cc1 [chlorhexidine] | – | relatively ineffective
CN(C)C=O [dimethylformamide] | cytotoxic | –
C[S+](C)[O-] [dimethylsulfoxide] | cytotoxic | –
CC(O)CO (centres unmarked) [propylene glycol] | cytotoxic | –
